In brackets after ≈: the same amount, converted by molar mass. Non-standard residues stand in square brackets, D forms with d. Residues, ends and D or L forms follow the SMILES beside them. Bip = N[C@@H](Cc1ccc(-c2ccccc2)cc1)C(=O)O
Experiments:
E. faecium V284-17 = assay type: cell-based, Enterococcus faecium; conditions: V284-17
S. aureus USA300 = assay type: cell-based, Staphylococcus aureus
Procedure: (§1) The antibiotic-resistant pathogens used in this study include the Gram-positive bacteria Enterococcus faecium V286-17 and Staphylococcus aureus USA300 LAC and the Gram-negative bacteria Klebsiella pneumoniae E406-17, Acinetobacter baumannii B28-16, Pseudomonas aeruginosa E411-17, and Escherichia coli E423-17. All bacteria were cultivated in tryptic soy broth (TSB) at 37 °C, 220 rpm.
(§2) The antibacterial activity of peptides was evaluated using a standard broth microdilution protocol with minor modifications. In brief, peptides were made at various concentrations, 10 μL per well in a 96-well polystyrene microplate. Logarithmic phase bacterial cultures (i.e., optical density (OD) at 600 nm ≈ 0.5) were diluted to 0.001 OD, and aliquots of 90 μL were added to each well. Untreated bacterial culture and medium were included as positive and negative controls, respectively. Plates were incubated at 37 °C overnight and read at 630 nm using a ChroMate Microplate Reader (Awareness Technology, Palm City, FL, USA). […] Our previously designed peptide 17BIPHE2 [32] was included as a positive control, and RI-10, a peptide without antibacterial activity in rich media, was utilized as a negative control.

K. pneumoniae E406-17 = assay type: cell-based, Klebsiella pneumoniae; conditions: E406-17
Procedure: as §1, §2

E. coli E423-17 = assay type: cell-based, Escherichia coli
Procedure: as §1, §2

[1] = tested on: clinical and antibiotic-resistant pathogens (panel of Table 3); assay type: cell-based; conditions: all six pathogens
Procedure: as §1, §2

[2] = tested on: A. baumannii B28-16 preformed biofilms; assay: Disruption of preformed biofilms (XTT); assay type: cell-based, Acinetobacter baumannii
Procedure: (§3) The antibiofilm activities of peptides against the preformed biofilms of A. baumannii B28-16 and S. aureus USA300 LAC were evaluated as follows. Bacteria in the logarithmic growth phase were adjusted to a cell density of 10^5 colony forming unit (CFU)/mL. Two hundred microliter cells were seeded into each well of the 96-well plates. The plates were incubated at 37 °C to allow for the formation of biofilm for 24, 48, and 72 h, respectively. The planktonic cells were then removed, followed by a wash. The biofilms were then treated with 20 µL of 10× two-fold diluted peptides and 180 µL of fresh TSB media for 24 h at 37 °C. Cultures treated with water without peptide served as the positive control, and media treated with water was used as the negative control. To quantify the antibiofilm activity of the peptides, the XTT [2, 3-bis (2-methyloxy-4-nitro-5-sulfophenyl)-2H-tertazolium-5-carboxanilide] assay staining method was used to quantitate the live cells. Absorbance was read at 450 nm using a ChroMate microliter plate reader. The percentage biofilm growth for the peptide was plotted by assuming 100% biofilm growth in untreated bacterial control wells. Data were represented as mean ± standard deviation (SD). The data are statistically significant at p < 0.05. Plots were generated using GraphPad Prism v7 (GraphPad Software, San Diego, CA, USA).

[3] = tested on: S. aureus USA300 LAC preformed biofilms; assay: Disruption of preformed biofilms (XTT); assay type: cell-based, Staphylococcus aureus
Procedure: as §3

S. aureus USA300 LAC [4] = assay: Membrane permeabilization (propidium iodide); assay type: cell-based, Staphylococcus aureus; conditions: peptide 8 µM; propidium iodide fluorescence, 2 h, PBS, 37 °C
Procedure: (§4) Membrane permeabilization was evaluated as described. In brief, bacteria were inoculated and grown overnight. A second inoculation was made and let bacteria grow to the exponential phase. Bacteria were then spun, washed, and resuspended in the same volume of PBS. A series of peptide solutions (10×) was made via two-fold dilution in a 96-well plate (10 µL each). All wells were aliquoted with 2 µL of propidium iodide (20 µM), followed by adding 88 µL of S. aureus USA300 or A. baumannii B28-16 (OD600 ~0.11 in PBS). The plate was incubated at 37 °C with continuous shaking at 100 rpm in a FLUOstar Omega microplate reader (BMG Labtech Inc., Cary, NC, USA). Fluorescence was recorded every 5 min for 2 h with excitation and emission wavelengths of 485 and 620 nm. The data were analyzed by the vendor’s software using averaged values from duplicated experiments.

A. baumannii B28-16 = assay: Membrane permeabilization (propidium iodide); assay type: cell-based, Acinetobacter baumannii; conditions: peptide 16 µM; propidium iodide fluorescence, 2 h, PBS, 37 °C
Procedure: as §4

S. aureus USA300 LAC [5] = assay: Membrane depolarization (DiBAC4(3)); assay type: cell-based, Staphylococcus aureus; conditions: peptide 8 µM; similar trends at 16 and 32 µM; DiBAC4(3) fluorescence
Procedure: The experiment was conducted as described. In brief, an overnight culture of S. aureus USA300 LAC was subcultured in a fresh TSB medium and grown to the exponential phase. Cells were spun using centrifugation and washed twice with PBS, and resuspended in twice the volume of PBS containing 25 mM glucose and incubated at 37 °C for 15 min. For membrane depolarization measurements, 500 nM (final concentration) of the dye DiBAC4 (3) (bis-(1,3- dibutylbarbituric acid) trimethine oxonol) (AnaSpec, San Jose, CA, USA) was added and vortexed gently. Aliquots of 90 μL of the energized bacteria solution were loaded to the wells, and the plate was fed into a FLUOstar Omega microplate reader. Fluorescence was read for 20 min at excitation and emission wavelengths of 485 and 520 nm, respectively, to get dye normalization. Then 10 μL of diluted peptide solutions were added and gently mixed. Fluorescence readings were recorded for 40 min, where Triton X-100 (0.1%) was used as a positive control.

[6] = tested on: S. aureus USA300 LAC preformed biofilms; conditions: S. aureus USA300 LAC and other clinical strains (USA200, USA400, Mu50); cited from earlier work
Procedure: Here, we compared the antibiofilm activity of SK-24 with that of GF-17, GI-20, and 17BIPHE2 against the 24 h preformed biofilms of S. aureus USA300. […] Only SK-24 a ...

MIC (E. faecium V284-17): 2 µM (≈ 4.51 µg/mL)
MIC (S. aureus USA300): 4 µM (≈ 9.02 µg/mL)
MIC (K. pneumoniae E406-17): 4 to 8 µM
MIC (E. coli E423-17): 4 µM (≈ 9.02 µg/mL)
MIC range over the pathogens of Table 3 [1]: 2 to 8 µM
SMILES: CC(C)C[C@H](NC(=O)[C@H](CC(N)=O)NC(=O)[C@H](CCCNC(=N)N)NC(=O)[C@@H](CC(C)C)NC(=O)[C@H](Cc1ccc(-c2ccccc2)cc1)NC(=O)[C@H](CC(=O)O)NC(=O)[C@H](CCCCN)NC(=O)[C@@H](CC(C)C)NC(=O)[C@H](CCCNC(=N)N)NC(=O)[C@H](CCC(N)=O)NC(=O)[C@@H](NC(=O)[C@@H](CC(C)C)NC(=O)[C@H](CCCNC(=N)N)NC(=O)[C@H](CCCCN)NC(=O)[C@H](Cc1ccc(-c2ccccc2)cc1)NC(=O)CN)C(C)C)C(=O)N[C@H](C(N)=O)C(C)C [Peptide 17BIPHE2] (H-G[Bip]KR[dL]VQR[dL]KD[Bip][dL]RNLV-NH2; N-terminus assumed)
Biofilm disruption ([2]; 72 h preformed biofilms, peptide 64 μM, highest concentration tested): ~ 70%
Disruption of 48 h biofilms ([2]; biofilms established for 48 h, 24 h treatment): dose-dependent biofilm disruption
Reduction of 24 h biofilms ([2]; biofilms established in 24 h, 24 h treatment): dose-dependent manner
Antibiofilm effect on 24 h preformed biofilms ([3]; 24 h preformed biofilms of S. aureus USA300, XTT): antibiofilm effect in a dose-dependent manner
Staphylococcal biofilm remaining (reduced to) ([3]; 24 h preformed biofilms, peptide 32 μM, relative to untreated control = 100%): ~ 25%
Membrane permeation (S. aureus USA300 LAC [4]): more powerful
Membrane permeation (A. baumannii B28-16): superior to SK-24
Membrane depolarization ability (order, words) (S. aureus USA300 LAC [5]): GI-20 > 17BIPHE2 > GF-17~SK-24 > LL-37
Disruption of 24 h preformed biofilms (words, found previously) [6]: highly effective
